Values quoted from earlier work, collected in US20240041983A1, “IMPROVED PHARMACEUTICAL FORMULATIONS OF GLP-1 RECEPTOR AGONISTS” (CYPRUMED GMBH, priority 2020, published 2024).

Settings: in humans

t½: ~1 week
Substance: semaglutide
